In ChEMBL document CHEMBL1201862, “PubChem BioAssay data set” (2004):
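Where inhibition never reached the appropriate level, the endpoint shown equals the highest concentration tested. Otherwise, values were interpolated linearly from a five-concentration, 48-hour dose response in 96-well plates. GI50 marks 50% less growth.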 Activity calls are given as the source filed them. Rule as the data show it: active = GI50 up to about 1.1 µM and inactive = higher.

Legend:
Assay in all cases: NCI anticancer screen, dose series, 48 h
[1] = tested on: K562
[2] = tested on: HL-60
[3] = tested on: NCI-H460
[4] = tested on: MDA-N
[5] = tested on: SR
[6] = tested on: SNB-75
[7] = tested on: HT-29
[8] = tested on: HOP-92
[9] = tested on: EKVX
[10] = tested on: HOP-62
[11] = tested on: CAKI-1
[12] = tested on: SF-295
[13] = tested on: HCT-15
[14] = tested on: COLO 205
[15] = tested on: HCT-116
[16] = tested on: OVCAR-5
[17] = tested on: U-251
[18] = tested on: KM12
[19] = tested on: SK-MEL-28
[20] = tested on: SK-MEL-2

SMILES	GI50 [1]	GI50 [2]	GI50 [3]	GI50 [4]	GI50 [5]	GI50 [6]	GI50 [7]	GI50 [8]	GI50 [9]	GI50 [10]	GI50 [11]	GI50 [12]	GI50 [13] [µM]	GI50 [14]	GI50 [15]	GI50 [16]	GI50 [17]	GI50 [18]	GI50 [19]	GI50 [20]
Cc1nc(O)c(Cc2ccccc2O)c(-c2ccccc2)n1	> 100 µM (inactive)	> 100 µM (inactive)	> 100 µM (inactive)	> 100 µM (inactive)	> 100 µM (inactive)	22.4 µM (inactive)	87.5 µM (inactive)	> 100 µM (inactive)	19.1 µM (inactive)	> 100 µM (inactive)	> 100 µM (inactive)	> 100 µM (inactive)	> 100	> 100 µM (inactive)	> 100 µM (inactive)	> 100 µM (inactive)	> 100 µM (inactive)	> 100 µM (inactive)	> 100 µM (inactive)	> 100 µM (inactive)
CCOC(=O)c1c(C)n(Cc2ccccc2)c(=O)c2ccccc2c(=O)c2c(=O)ccc(=O)c1=2	43.3 µM (inactive)	> 100 µM (inactive)	> 100 µM (inactive)	73.8 µM (inactive)	30.8 µM (inactive)	> 100 µM (inactive)	42.8 µM (inactive)	14.9 µM (inactive)	> 100 µM (inactive)	> 100 µM (inactive)	34.7 µM (inactive)	> 100 µM (inactive)	34.8	43.4 µM (inactive)	18.2 µM (inactive)	> 100 µM (inactive)	> 100 µM (inactive)	> 100 µM (inactive)	55.7 µM (inactive)	> 100 µM (inactive)
COc1cc(C2c3cc4c(cc3C(O)C3CCC(=O)N23)OCO4)cc(OC)c1OC (stereo not given)	26.5 µM (inactive)	17.1 µM (inactive)	39.4 µM (inactive)	5.56 µM (inactive)	39.9 µM (inactive)	26.7 µM (inactive)	29.9 µM (inactive)	33 µM (inactive)	> 100 µM (inactive)	39.2 µM (inactive)	28.2 µM (inactive)	6.68 µM (inactive)	31	37 µM (inactive)	24.3 µM (inactive)	43.2 µM (inactive)	26.1 µM (inactive)	12.6 µM (inactive)	16.8 µM (inactive)	27 µM (inactive)
CC(=O)N(CN1C(=O)CCC1C(=O)O)c1ccccc1 (stereo not given)	> 53 µM (inactive)	> 55.7 µM (inactive)	> 100 µM (inactive)	> 58.9 µM (inactive)	> 100 µM (inactive)	> 56.5 µM (inactive)	> 55 µM (inactive)	> 63.1 µM (inactive)	> 53.8 µM (inactive)	> 55.6 µM (inactive)	> 57.3 µM (inactive)	> 52.6 µM (inactive)	> 100	> 58.6 µM (inactive)	> 56 µM (inactive)	> 55.6 µM (inactive)	> 100 µM (inactive)	> 55.3 µM (inactive)	> 100 µM (inactive)	> 54.7 µM (inactive)
COc1cccc(C(NC2=NCCC=N2)c2cc3c(cc2O)OCO3)c1O (stereo not given)	17.9 µM (inactive)	8.93 µM (inactive)	29.8 µM (inactive)	27.2 µM (inactive)	11.6 µM (inactive)	23.3 µM (inactive)	38.5 µM (inactive)	23.7 µM (inactive)	> 100 µM (inactive)	25.7 µM (inactive)	49.1 µM (inactive)	42.2 µM (inactive)	14.1	40.1 µM (inactive)	24.1 µM (inactive)	36.6 µM (inactive)	17.7 µM (inactive)	32.8 µM (inactive)	32.7 µM (inactive)	24.4 µM (inactive)
Cn1nnc2c(C(N)=O)ncn2c1=O [TEMOZOLOMIDE]	75.9 µM (inactive)	85.5 µM (inactive)	> 100 µM (inactive)	> 100 µM (inactive)	> 100 µM (inactive)	71 µM (inactive)	> 100 µM (inactive)	> 100 µM (inactive)	> 100 µM (inactive)	> 100 µM (inactive)	> 100 µM (inactive)	> 100 µM (inactive)	> 100	> 100 µM (inactive)	> 100 µM (inactive)	> 100 µM (inactive)	> 100 µM (inactive)	> 100 µM (inactive)	> 100 µM (inactive)	> 100 µM (inactive)
